Assay results taken from ChEMBL document CHEMBL3808363, “2-(Thienothiazolylimino)-1,3-thiazolidin-4-ones inhibit cell division cycle 25 A phosphatase” (Bioorg Med Chem, 2016).
Calls of active or inactive are those of the source. No cut-off for these calls is given here.

Key:
[1] = molecular target: T1, M-phase inducer phosphatase 1 (Homo sapiens) (UniProt P30304); test: (§1) Inhibition of human recombinant full length GST-tagged CDC25A transfected in Escherichia coli BL21-DE3 using 3-O-methylfluorescein phosphate as substrate at 10 uM incubated for 20 mins followed by substrate addition measured every 10 mins for 2 hrs by fluorimetric assay
T1 sequence (whole entry): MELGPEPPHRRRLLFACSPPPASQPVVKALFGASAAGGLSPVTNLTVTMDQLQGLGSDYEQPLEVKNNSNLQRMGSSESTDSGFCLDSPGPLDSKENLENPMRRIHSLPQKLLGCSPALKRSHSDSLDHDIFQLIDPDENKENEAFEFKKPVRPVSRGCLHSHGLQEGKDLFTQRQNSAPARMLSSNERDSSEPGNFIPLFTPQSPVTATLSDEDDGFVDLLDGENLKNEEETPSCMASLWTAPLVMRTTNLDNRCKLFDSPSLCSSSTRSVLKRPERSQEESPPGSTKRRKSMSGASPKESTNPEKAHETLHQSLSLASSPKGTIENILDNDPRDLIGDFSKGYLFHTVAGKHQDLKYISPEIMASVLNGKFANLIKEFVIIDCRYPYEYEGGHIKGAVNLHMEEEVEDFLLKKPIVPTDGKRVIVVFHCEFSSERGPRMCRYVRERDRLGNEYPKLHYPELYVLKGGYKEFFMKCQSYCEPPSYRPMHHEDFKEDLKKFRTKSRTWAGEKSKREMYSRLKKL

[2] = molecular target: T2, M-phase inducer phosphatase 2 (Homo sapiens) (UniProt P30305); test: Inhibition of human recombinant GST-tagged CDC25B catalytic domain transfected in Escherichia coli BL21-DE3 using 3-O-methylfluorescein phosphate as substrate at 10 uM incubated for 20 mins followed by substrate addition measured every 10 mins for 2 hrs by fluorimetric assay
T2 sequence (whole entry): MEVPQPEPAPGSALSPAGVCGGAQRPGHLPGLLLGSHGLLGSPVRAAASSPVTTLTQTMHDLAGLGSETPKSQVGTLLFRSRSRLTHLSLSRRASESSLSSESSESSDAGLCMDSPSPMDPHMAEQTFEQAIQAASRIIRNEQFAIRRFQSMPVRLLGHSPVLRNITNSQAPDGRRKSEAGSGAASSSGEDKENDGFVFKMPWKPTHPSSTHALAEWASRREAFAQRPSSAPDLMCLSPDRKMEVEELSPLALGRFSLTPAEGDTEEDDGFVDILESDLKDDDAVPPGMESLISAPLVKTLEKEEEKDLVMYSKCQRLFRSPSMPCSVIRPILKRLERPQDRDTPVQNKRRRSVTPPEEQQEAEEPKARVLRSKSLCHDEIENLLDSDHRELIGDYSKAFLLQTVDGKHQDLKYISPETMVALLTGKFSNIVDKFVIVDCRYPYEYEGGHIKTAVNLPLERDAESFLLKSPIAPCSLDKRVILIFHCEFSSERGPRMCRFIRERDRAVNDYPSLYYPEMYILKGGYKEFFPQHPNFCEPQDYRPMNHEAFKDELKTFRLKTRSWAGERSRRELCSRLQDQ

[3] = molecular target: T3, M-phase inducer phosphatase 3 (Homo sapiens) (UniProt P30307); test: Inhibition of human recombinant full length GST-tagged CDC25C transfected in Escherichia coli BL21-DE3 using 3-O-methylfluorescein phosphate as substrate at 10 uM incubated for 20 mins followed by substrate addition measured every 10 mins for 2 hrs by fluorimetric assay
T3 sequence (whole entry): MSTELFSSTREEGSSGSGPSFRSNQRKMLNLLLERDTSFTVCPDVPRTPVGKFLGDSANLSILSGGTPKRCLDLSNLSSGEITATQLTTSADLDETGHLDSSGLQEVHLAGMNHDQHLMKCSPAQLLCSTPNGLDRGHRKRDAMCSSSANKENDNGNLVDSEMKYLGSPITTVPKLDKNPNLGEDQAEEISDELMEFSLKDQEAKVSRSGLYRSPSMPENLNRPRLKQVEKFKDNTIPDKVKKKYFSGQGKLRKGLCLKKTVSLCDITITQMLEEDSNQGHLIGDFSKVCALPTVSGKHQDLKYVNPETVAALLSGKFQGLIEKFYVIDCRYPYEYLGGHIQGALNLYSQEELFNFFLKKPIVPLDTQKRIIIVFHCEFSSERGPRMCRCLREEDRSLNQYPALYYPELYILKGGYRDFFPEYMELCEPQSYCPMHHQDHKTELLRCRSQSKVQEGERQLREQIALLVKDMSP

HT-29 = test: Cytotoxicity against human HT-29 cells assessed as inhibition of cell growth after 72 hrs by MTT assay; type: functional, cell-based; conditions: HT-29, 72 h
[4] = Cytotoxicity against human HCT116 cells assessed as inhibition of cell growth after 72 hrs by MTT assay; type: functional, cell-based; conditions: HCT-116, 72 h
MCF7 [5] = test: Cytotoxicity against human MCF7 cells assessed as inhibition of cell growth after 72 hrs by MTT assay; type: functional, cell-based; conditions: MCF7, 72 h
MDA-MB-231 [6] = test: Cytotoxicity against human MDA-MB-231 cells assessed as inhibition of cell growth after 72 hrs by MTT assay; type: functional, cell-based; conditions: MDA-MB-231, 72 h
[7] = molecular target: T4, M-phase inducer phosphatase 1 (Homo sapiens, UniProt P30304); test: Inhibition of human recombinant full length GST-tagged CDC25A transfected in Escherichia coli BL21-DE3 using 3-O-methylfluorescein phosphate as substrate incubated for 20 mins followed by substrate addition measured every 10 mins for 2 hrs by fluorimetric assay
T4 sequence (P30304 whole entry): T1 sequence (whole entry)

[8] = molecular target: T1, M-phase inducer phosphatase 1 (Homo sapiens); test: Reversible binding affinity to human recombinant full length GST-tagged CDC25A transfected in Escherichia coli BL21-DE3 after 1 hr by MALDI-TOF mass spectrometry
MCF7 [9] = test: Cytotoxicity against human MCF7 cells assessed as inhibition of cell growth at IC50 concentration after 72 hrs by trypan blue assay; type: functional
MDA-MB-231 [10] = test: Cytotoxicity against human MDA-MB-231 cells assessed as inhibition of cell growth at IC50 concentration after 72 hrs by trypan blue assay; type: functional
MCF7 [11] = test: Cytotoxicity against human MCF7 cells assessed as cell growth at IC50 concentration after 72 hrs by trypan blue assay; type: functional
MDA-MB-231 [12] = test: Cytotoxicity against human MDA-MB-231 cells assessed as cell growth at IC50 concentration after 72 hrs by trypan blue assay; type: functional
[13] = molecular target: T1, M-phase inducer phosphatase 1 (Homo sapiens); test: (§2) Inhibition of human recombinant full length GST-tagged CDC25A transfected in Escherichia coli BL21-DE3 using 3-O-methylfluorescein phosphate as substrate at 10 uM incubated for 20 mins followed by substrate addition measured every 10 mins for 2 hrs by fluorimetric assay in presence of 0.1% BSA
[14] = molecular target: T1, M-phase inducer phosphatase 1 (Homo sapiens); test: as §1, with “assay in presence of 0.01% triton X 100” for “assay”
[15] = molecular target: T1, M-phase inducer phosphatase 1 (Homo sapiens); test: as §1, with “assay in presence of 0.025% triton X 100” for “assay”
[16] = molecular target: T1, M-phase inducer phosphatase 1 (Homo sapiens); test: as §1, with “assay in presence of 0.05% triton X 100” for “assay”
[17] = molecular target: T1, M-phase inducer phosphatase 1 (Homo sapiens); test: as §2, with “triton X 100” for “BSA”
[18] = molecular target: T1, M-phase inducer phosphatase 1 (Homo sapiens); test: as §1, with “assay in presence of 0.5% triton X 100” for “assay”

| Compound | inhibition [1] | inhibition [2] | inhibition [3] | IC50 (HT-29) | IC50 [4] | IC50 (MCF7 [5]) | IC50 (MDA-MB-231 [6]) | IC50 [7] | Activity [8] | growth inhibition (GI) (MCF7 [9]) | growth inhibition (GI) (MDA-MB-231 [10]) | Activity (MCF7 [11]) | Activity (MDA-MB-231 [12]) | inhibition [13] | inhibition [14] | inhibition [15] | inhibition [16] | inhibition [17] | inhibition [18] |
| --- | --- | --- | --- | --- | --- | --- | --- | --- | --- | --- | --- | --- | --- | --- | --- | --- | --- | --- | --- |
| O=C1CS/C(=N\c2nc3cc(-c4ccc(Cl)cc4)sc3s2)N1 | 6.8% | 21.6% | 16.4% | 13.6 µM | 14.5 µM | 12.4 µM | 18.8 µM |  |  |  |  |  |  |  |  |  |  |  |  |
| CN(C)c1ccc(/C=C2/S/C(=N\c3nc4cc(-c5ccc(Cl)cc5)sc4s3)NC2=O)cc1 |  |  |  | > 50 µM |  | > 50 µM |  |  |  |  |  |  |  |  |  |  |  |  |  |
| Cc1ccc(/C=C2/S/C(=N\c3nc4cc(-c5ccc(Cl)cc5)sc4s3)NC2=O)cc1 | 68.1% | 24.2% | 23.3% | 45.5 µM |  | 3.3 µM | 22.8 µM | 8.3 µM | Active | inactive | 70% |  |  |  |  |  |  |  |  |
| O=C1N/C(=N/c2nc3cc(-c4ccc(Cl)cc4)sc3s2)S/C1=C/c1ccc2ccccc2c1 | 67% | 27.3% | 22.6% | > 50 µM |  | 15.2 µM | > 50 µM | 7.3 µM | Active |  |  | >80% | >80% |  |  |  |  |  |  |
| O=C1N/C(=N/c2nc3cc(-c4ccc(Br)cc4)sc3s2)S/C1=C/c1ccc(Cl)cc1 | 28.4% | 3.8% | 6.1% | 15.2 µM | 15.5 µM | 11 µM | 22.3 µM |  |  | 25% | 35% |  |  |  |  |  |  |  |  |
| O=C1CS/C(=N\c2nc3cc(-c4ccc(Cl)cc4)[se]c3s2)N1 | 4.2% | 17.4% | 15.6% | 42.4 µM | 43.8 µM | 21.8 µM | 35.6 µM |  |  |  |  |  |  |  |  |  |  |  |  |
| O=C1C=CC(=O)c2ccccc21 | 79.7% | 71.2% | 99.2% |  |  |  |  |  |  |  |  |  |  | 20.3% | 20.6% | 18.6% | 26.5% | 24.7% | 26.3% |
| O=C1N/C(=N/c2nc3cc(-c4ccc(Cl)cc4)sc3s2)S/C1=C/c1ccc(F)cc1 | 65.6% | 35.4% | 15.5% | > 50 µM |  | 21 µM | 24.7 µM | 7.8 µM | Active | 60% | 30% |  |  |  |  |  |  |  |  |
| O=C1N/C(=N/c2nc3cc(-c4ccc(Cl)cc4)sc3s2)S/C1=C/c1ccc(Cl)cc1 |  |  |  | > 50 µM |  | > 50 µM |  |  |  |  |  |  |  |  |  |  |  |  |  |
